Measurements reported in patent publication US7524861B2, “Process for the preparation of a hydrate of an anthranilic acid derivative” (priority 2002, dated 2009).
Marks after values point to notes of the source that are not given here.

Experiments:
[1] = Hygroscopicity study (weight change on storage at 33-95% RH, KF water content); type: physicochemical; conditions: for KF moisture result: hygroscopicity sample
Experimental: (§1) The hexahydrate produced in Example 1 was analysed as follows. Four desiccator cabinets were prepared to contain open dishes of the following saturated salt solutions, to achieve the following approximate relative humidities (RH).
(§2) Dehydration of samples was carried out by storing them over silica gel or over P2O5 at reduced pressure (65 mm Hg). All studies were performed at ambient laboratory temperature (15-22° C.).
Pre-equilibrated weighing bottles and lids (stored at 33% RH for a minimum of 24 hours) were weighed on a tared 5-figure analytical balance, and the weight recorded. To these the hydrate was added (approx 2 g), the weight recorded and the difference (the accurate weight of the drug substance) calculated. The weighing bottles, lids and contents were then transferred to the 33% RH cabinet, with the lids removed and placed to the side.
At appropriate times, the lids were replaced and the weight measured. After weighing, the samples were gently agitated and placed back in the 33% RH cabinet, again with the lid removed and placed to one side. This process continued until all % weight changes for all samples were seen to have reached stable end-points. […]. When stable end-points were observed, the samples were stepped up to the next % RH cabinet by transferring the drug to pre-equilibrated weighing bottles, recording their weight as before. Samples were stored progressively at 33% RH, 60% RH, 75% RH and 95% RH.
(§3) Water contents were measured by coulometric KF (Karl Fischer) titration.

[2] = Dehydration/re-hydration study (weight change over desiccants, then 33-95% RH, KF water content); type: physicochemical
Experimental: as §1, §2
During this study, samples were dispensed to pre-equilibrated weighing bottles as in the hygroscopicity study, and were then stored over silica gel without reduced pressure, then over […] under reduced pressure (65 mm Hg) to dehydrate the hydrate. Once a stable weight was achieved over P2O5, samples were re-hydrated by storing them at 33% RH to 95% RH, in parallel with the hygroscopicity study as described above.
as §3

Cumulative % change Hygroscopicity ([1]; 33% RH, tabulated time 1147.25 h (actual: minus 1144 h)): −0.17* % | Cumulative % change Hygroscopicity ([1]; 33% RH, tabulated time 1150.75 h (actual: minus 1144 h)): −0.22% | Cumulative % change Hygroscopicity ([1]; 33% RH, tabulated time 1168.00 h (actual: minus 1144 h)): −0.47% | Cumulative % change Hygroscopicity ([1]; 33% RH, tabulated time 1240.75 h (actual: minus 1144 h)): −0.37% | Cumulative % change Hygroscopicity ([1]; 33% RH, tabulated time 1268.50 h (actual: minus 1144 h)): −0.42% | Cumulative % change Hygroscopicity ([1]; 33% RH, tabulated time 1312.50 h (actual: minus 1144 h)): −0.49% | Cumulative % change Hygroscopicity ([1]; 33% RH, tabulated time 1431.25 h (actual: minus 1144 h)): −0.63% | Cumulative % change Hygroscopicity ([1]; 33% RH, tabulated time 1502.25 h (actual: minus 1144 h)): −0.51% | Cumulative % change Hygroscopicity ([1]; 33% RH, tabulated time 1672.50 h (actual: minus 1144 h)): −0.70% | Cumulative % change Hygroscopicity ([1]; 33% RH, tabulated time 1741.50 h (actual: minus 1144 h)): −0.76% | hygroscopicity on storage at progressively higher RH values ([1]; 33% to 95% RH, ambient temperature): no evidence of hygroscopicity | Cumulative % change Hygroscopicity ([1]; 60% RH, tabulated time 1744.50 h (actual: minus 1144 h)): 0.12% | Cumulative % change Hygroscopicity ([1]; 60% RH, tabulated time 1746.50 h (actual: minus 1144 h)): 0.13% | Cumulative % change Hygroscopicity ([1]; 60% RH, tabulated time 1762.50 h (actual: minus 1144 h)): 0.08% | Cumulative % change Hygroscopicity ([1]; 60% RH, tabulated time 1835.75 h (actual: minus 1144 h)): 0.27% | Cumulative % change Hygroscopicity ([1]; 60% RH, tabulated time 1932.25 h (actual: minus 1144 h)): 0.37% | Cumulative % change Hygroscopicity ([1]; 60% RH, tabulated time 2101.50 h (actual: minus 1144 h)): 0.56% | Cumulative % change Hygroscopicity ([1]; 60% RH, tabulated time 2147.75 h (actual: minus 1144 h)): 0.34% | Cumulative % change Hygroscopicity ([1]; 60% RH, tabulated time 2273.75 h (actual: minus 1144 h)): 0.34% | Cumulative % change Hygroscopicity ([1]; 60% RH, tabulated time 2410.25 h (actual: minus 1144 h)): 0.27% | Cumulative % change Hygroscopicity ([1]; 75% RH, tabulated time 2417.25 h (actual: minus 1144 h)): 0.87% | Cumulative % change Hygroscopicity ([1]; 75% RH, tabulated time 2434.25 h (actual: minus 1144 h)): 0.88% | Cumulative % change Hygroscopicity ([1]; 75% RH, tabulated time 2441.25 h (actual: minus 1144 h)): 0.88% | Cumulative % change Hygroscopicity ([1]; 75% RH, tabulated time 2482.00 h (actual: minus 1144 h)): 0.92% | Cumulative % change Hygroscopicity ([1]; 75% RH, tabulated time 2577.75 h (actual: minus 1144 h)): 1.00% | Cumulative % change Hygroscopicity ([1]; 75% RH, tabulated time 2609.75 h (actual: minus 1144 h)): 0.96% | Cumulative % change Hygroscopicity ([1]; 75% RH, tabulated time 2681.25 h (actual: minus 1144 h)): 1.08% | Cumulative % change Hygroscopicity ([1]; 75% RH, tabulated time 2770.25 h (actual: minus 1144 h)): 1.01% | Cumulative % change Hygroscopicity ([1]; 75% RH, tabulated time 2817.75 h (actual: minus 1144 h)): 1.09% | Cumulative % change Hygroscopicity ([1]; 95% RH, tabulated time 2825.25 h (actual: minus 1144 h)): 1.85% | Cumulative % change Hygroscopicity ([1]; 95% RH, tabulated time 2841.75 h (actual: minus 1144 h)): 2.23% | Cumulative % change Hygroscopicity ([1]; 95% RH, tabulated time 2915.75 h (actual: minus 1144 h)): 2.57% | Cumulative % change Hygroscopicity ([1]; 95% RH, tabulated time 2937.75 h (actual: minus 1144 h)): 2.71% | Cumulative % change Hygroscopicity ([1]; 95% RH, tabulated time 2991.25 h (actual: minus 1144 h)): 2.82% | Cumulative % change Hygroscopicity ([1]; 95% RH, tabulated time 3082.25 h (actual: minus 1144 h)): 3.28% | Cumulative % change Hygroscopicity ([1]; 95% RH, tabulated time 3130.00 h (actual: minus 1144 h)): 3.51% | Cumulative % change Hygroscopicity ([1]; 95% RH, tabulated time 3182.25 h (actual: minus 1144 h)): 3.39% | Cumulative % change Hygroscopicity ([1]; 95% RH, tabulated time 3252.25 h (actual: minus 1144 h)): 3.62% | Cumulative % change Hygroscopicity ([1]; 95% RH, tabulated time 3350.25 h (actual: minus 1144 h)): 3.65% | Cumulative % change Hygroscopicity ([1]; 95% RH, tabulated time 3422.25 h (actual: minus 1144 h)): 3.64% | Cumulative % change Hygroscopicity ([1]; 95% RH, tabulated time 3636.25 h (actual: minus 1144 h)): 4.12% | Cumulative % change Hygroscopicity ([1]; 95% RH, tabulated time 4332.75 h (actual: minus 1144 h)): 4.45% | weight increase between storage at 33% RH and end of storage at 75% RH ([1]; both re-hydrated and untreated samples): less than 2 % (absolute) | KF moisture result ([1]; 95% RH, tabulated time 4332.75 h (end)): (15.35) % w/w | KF moisture result ([1]; printed in first 33% RH row (start of study)): (12.45) % w/w | Cumulative % change Dehydration/Rehydration ([2]; 60% RH, cumulative time 1744.50 h): 0.19% | Cumulative % change Dehydration/Rehydration ([2]; 60% RH, cumulative time 1746.50 h): 0.31% | Cumulative % change Dehydration/Rehydration ([2]; 60% RH, cumulative time 1762.50 h): 0.30% | Cumulative % change Dehydration/Rehydration ([2]; 60% RH, cumulative time 1835.75 h): 0.54% | Cumulative % change Dehydration/Rehydration ([2]; 60% RH, cumulative time 1932.25 h): 0.64% | Cumulative % change Dehydration/Rehydration ([2]; 60% RH, cumulative time 2101.50 h): 0.86% | Cumulative % change Dehydration/Rehydration ([2]; 60% RH, cumulative time 2147.75 h): 0.62% | Cumulative % change Dehydration/Rehydration ([2]; 60% RH, cumulative time 2273.75 h): 0.61% | Cumulative % change Dehydration/Rehydration ([2]; 60% RH, cumulative time 2410.25 h): 0.51% | Cumulative % change Dehydration/Rehydration ([2]; 75% RH, cumulative time 2417.25 h): 1.18% | Cumulative % change Dehydration/Rehydration ([2]; 75% RH, cumulative time 2434.25 h): 1.21%
SMILES: COc1cc2c(cc1OC)CN(CCc1ccc(NC(=O)c3cc(OC)c(OC)cc3NC(=O)c3cnc4ccccc4c3)cc1)CC2 [Example 1, Quinoline-3-carboxylic acid (2-{4-[2-(6,7-dimethoxy-3,4-dihydro-1H-isoquinolin-2-yl)-ethyl]-phenylcarbamoyl}-4,5-dimethoxy-phenyl)-amide]
